Target: c-kit WT (Homo sapiens (Human), UniProt P10721)
Experiment: Proliferation assay (CellTiter-Blue) on BaF3 Kit WT cell line
Assay type: cell-based
Details: BaF3 Kit WT cell line (murine Ba/F3 expressing Human Kit WT, with murine SCF), 48 hours
Summary of the method: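 Ba/F3 cells expressing human Kit WT, maintained in RPMI/10% FCS with 250 ng/ml murine SCF, were seeded at 2.10^4 cells/well and exposed to ½ serial dilutions (0–10 μM) for 48 h at 37° C. Viability was measured by CellTiter-Blue fluorescence (544Ex/590Em, 4 h) in triplicate as % of untreated proliferation.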

Sequence of c-kit WT (P10721 26-976): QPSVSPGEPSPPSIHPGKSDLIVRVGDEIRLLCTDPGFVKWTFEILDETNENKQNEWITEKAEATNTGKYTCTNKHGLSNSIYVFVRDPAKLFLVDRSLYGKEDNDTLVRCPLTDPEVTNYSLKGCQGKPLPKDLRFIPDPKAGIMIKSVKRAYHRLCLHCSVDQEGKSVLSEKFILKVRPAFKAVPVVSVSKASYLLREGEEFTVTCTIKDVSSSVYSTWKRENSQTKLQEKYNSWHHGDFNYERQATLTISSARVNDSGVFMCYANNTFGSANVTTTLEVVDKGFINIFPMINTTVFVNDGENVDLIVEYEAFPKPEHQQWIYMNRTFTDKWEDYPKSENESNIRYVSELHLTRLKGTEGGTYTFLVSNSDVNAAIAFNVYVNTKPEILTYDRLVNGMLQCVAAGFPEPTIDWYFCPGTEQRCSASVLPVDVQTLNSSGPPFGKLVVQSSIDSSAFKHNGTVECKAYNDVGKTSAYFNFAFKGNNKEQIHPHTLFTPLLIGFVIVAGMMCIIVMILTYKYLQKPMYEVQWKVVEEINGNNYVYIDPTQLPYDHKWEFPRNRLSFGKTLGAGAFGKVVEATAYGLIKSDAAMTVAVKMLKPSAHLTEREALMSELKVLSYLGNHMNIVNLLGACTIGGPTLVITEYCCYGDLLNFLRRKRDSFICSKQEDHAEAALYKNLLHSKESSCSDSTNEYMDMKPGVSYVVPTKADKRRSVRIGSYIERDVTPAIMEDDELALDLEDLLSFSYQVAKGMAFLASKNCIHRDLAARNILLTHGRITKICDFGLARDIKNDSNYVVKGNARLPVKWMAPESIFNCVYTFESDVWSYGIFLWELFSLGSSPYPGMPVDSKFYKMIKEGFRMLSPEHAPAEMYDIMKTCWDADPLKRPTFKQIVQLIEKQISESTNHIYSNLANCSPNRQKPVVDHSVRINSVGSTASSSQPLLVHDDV

| SMILES | IC50 [nM] |
| --- | --- |
| Cc1cc2c(cc1Nc1nc(-c3ccncc3)cs1)nc(-c1ccc(CN3CCN(C)CC3)cc1)n2C [Compound 099, {1,6-Dimethyl-2-[4-(4-methyl-piperazin-1-ylmethyl)-phenyl]-1H-benzoimidazol-5-yl}-(4-pyridin-4-yl-thiazol-2-yl)-amine] | 1000 to 10000 |
| Cc1cc2nc(-c3ccc(CN4CCN(C)CC4)cc3)[nH]c2cc1Nc1nccc(-c2cccnc2)n1 [Compound 009, {6-Methyl-2-[4-(4-methyl-piperazin-1-ylmethyl)-phenyl]-3H-benzoimidazol-5-yl}-(4-pyridin-3-yl-pyrimidin-2-yl)-amine] | 1000 to 10000 |
| Cc1cc2nc(-c3cccc(CN4CCN(C)CC4)c3)[nH]c2cc1Nc1nc(-c2ccncc2)cs1 [Compound 046, {6-Methyl-2-[3-(4-methyl-piperazin-1-ylmethyl)-phenyl]-1H-benzoimidazol-5-yl}-(4-pyridin-4-yl-thiazol-2-yl)-amine] | 1000 to 10000 |
| Cc1cc2nc(-c3cc(CN4CCOCC4)cc(C(F)(F)F)c3)[nH]c2cc1Nc1nccc(-c2cccnc2)n1 [Compound 028] | ≤ 1000 |
| Cc1cc2nc(-c3cccc(F)c3)[nH]c2cc1Nc1nccc(-c2cccnc2)n1 [Compound 019, [2-(3-Fluoro-phenyl)-6-methyl-3H-benzoimidazol-5-yl]-(4-pyridin-3-yl-pyrimidin-2-yl)-amine] | 1000 to 10000 |
| Cc1cc2nc(-c3ccc(CN4CCN(C)CC4)cc3)[nH]c2cc1Nc1ncc(-c2cccnc2)o1 [Compound 006, {6-Methyl-2-[4-(4-methyl-piperazin-1-ylmethyl)-phenyl]-3H-benzoimidazol-5-yl}-(5-pyridin-3-yl-oxazol-2-yl)-amine] | 1000 to 10000 |
| Cc1cc2nc(-c3cccc(C#N)c3)[nH]c2cc1Nc1nccc(-c2cccnc2)n1 [Compound 013, 3-[5-Methyl-6-(4-pyridin-3-yl-pyrimidin-2-ylamino)-1H-benzoimidazol-2-yl]-benzonitrile] | 1000 to 10000 |
| Cc1cc2nc(CN3CCOCC3)[nH]c2cc1Nc1nc(-c2cccnc2)cs1 [Compound 064, (6-Methyl-2-morpholin-4-ylmethyl-3H-benzoimidazol-5-yl)-(4-pyridin-3-yl-thiazol-2-yl)-amine] | 1000 to 10000 |

More lines, now with the values ahead:

| IC50 [nM] | SMILES |
| --- | --- |
| 1000 to 10000 | Cn1c(-c2cccc(OC(F)(F)F)c2)nc2cc(Nc3nc(-c4cccnc4)cs3)ccc21 [Compound 092, [1-Methyl-2-(3-trifluoromethoxy-phenyl)-1H-benzoimidazol-5-yl]-(4-pyridin-3-yl-thiazol-2-yl)-amine] |
| ≤ 1000 | Cc1cc2[nH]c(-c3cccc(C(C)(C)C)c3)nc2cc1Nc1nc(-c2cccnc2)cs1 [Compound 137, [2-(3-tert-Butyl-phenyl)-6-methyl-1H-benzoimidazol-5-yl]-(4-pyridin-3-yl-thiazol-2-yl)-amine] |
| 1000 to 10000 | Cc1cc2nc(Cc3ccccc3)[nH]c2cc1Nc1nc(-c2cccnc2)cs1 [Compound 022, (2-Benzyl-6-methyl-3H-benzoimidazol-5-yl)-(4-pyridin-3-yl-thiazol-2-yl)-amine] |
| ≤ 1000 | Cc1cc2[nH]c(-c3cccc(C(F)(F)F)c3)nc2cc1Nc1nc(-c2ccnc(Cl)c2)cs1 [Compound 106, [4-(2-Chloro-pyridin-4-yl)-thiazol-2-yl]-[6-methyl-2-(3-trifluoromethyl-phenyl)-1H-benzoimidazol-5-yl]-amine] |
| ≤ 1000 | Cc1cc2nc(-c3ccc(C(F)(F)F)cc3)[nH]c2cc1Nc1nc(-c2ccc(C(N)=O)cc2)cs1 [Compound 072, 4-{2-[6-Methyl-2-(4-trifluoromethyl-phenyl)-3H-benzoimidazol-5-ylamino]-thiazol-4-yl}-benzamide] |
| ≤ 1000 | Cc1cccc(-c2nc3cc(Nc4nc(-c5ccc(C#N)cc5)cs4)c(C)cc3n2C)c1 [Compound 112, 4-[2-(1,6-Dimethyl-2-m-tolyl-1H-benzoimidazol-5-ylamino)-thiazol-4-yl]-benzonitrile] |
| ≤ 1000 | CCn1c(-c2cccc(C(F)F)c2)nc2cc(Nc3nc(-c4cccnc4)cs3)c(C)cc21 [Compound 109] |

— patent US10202370B2, “Benzimidazole derivatives as selective proteine kinase inhibitors” (AB SCIENCE, priority 2013, dated 2019)
